Measurements taken from US11236087B2, “Highly active pyrazolo-piperidine substituted indole-2-carboxamides active against the hepatitis B virus (HBV)” (AiCuris GmbH & Co. KG, priority 2017, dated 2022).

Assays:
HBV = experiment: Determination of HBV DNA from the supernatants of HepAD38 cells (anti-HBV activity); format: cell-based, hepatitis B virus; conditions: Hepatitis B virus, 144 h; HBV DNA in HepAD38 supernatant, day 6, qPCR; read-out: Cell Activity (EC50)
Outline: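 HepAD38 cells, tetracycline withdrawn to induce HBV, treated with serial half-log compound dilutions; on day 6 HBV DNA purified from filtered supernatant and quantified by real-time PCR against HBV plasmid standards; EC50 from relative copy numbers by non-linear regression, three experiments in triplicate.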

HBV core protein = target: T1, HBV core protein (UniProt P03146); experiment: Biochemical capsid assembly assay (fluorescence quenching); set-up: species or system hepatitis B virus; conditions: read-out: Assembly Activity (IC50); BODIPY-FL labelled core protein, 300 μM NaCl, read 6 min after start
T1 construct: fused on or other part: BODIPY-FL maleimide label on the C-terminal Cys150
Outline: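 Purified E. coli-expressed HBV core protein (aa 1-149 plus Cys150), BODIPY-FL maleimide-labelled, at 1.0-2.0 μM in 50 mM HEPES pH 7.5 with 0.5% DMSO was used. Compounds were tested at 8 concentrations (0.5-log dilutions from 100, 31.6 or 10 μM). Assembly was started with NaCl ([…]), and fluorescence quenching was read after 6 min (ex 477/em 525 nm). EC50 was determined by non-linear regression.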

[1] = Cell viability assay (AlamarBlue) in HepAD38 cells; conditions: human

T1 sequence (P03146 whole entry, looked up, the tested form may be a part): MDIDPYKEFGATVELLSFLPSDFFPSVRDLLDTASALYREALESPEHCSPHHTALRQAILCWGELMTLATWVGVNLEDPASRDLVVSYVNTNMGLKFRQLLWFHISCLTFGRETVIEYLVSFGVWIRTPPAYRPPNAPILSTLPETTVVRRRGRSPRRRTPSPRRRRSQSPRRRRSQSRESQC

COCC1(N(C)C(=O)c2n[nH]c3c2CN(C(=O)c2cc4c(F)ccc(F)c4[nH]2)CC3)CC1 [Example 297, 5-(4,7-difluoro-1H-indole-2-carbonyl)-N-[1-(methoxymethyl)cyclopropyl]-N-methyl-1H,4H,5H,6H,7H-pyrazolo[4,3-c]pyridine-3-carboxamide]
EC50 (HBV): < 1 µM
IC50 (HBV core protein): < 5 µM
CC50 at 6 days [1]: > 10 µM

COCC1(N(C)C(=O)c2n[nH]c3c2CN(C(=O)c2cc4c(C(F)F)cc(F)cc4[nH]2)CC3)CC1 [Example 298, 5-[4-(difluoromethyl)-6-fluoro-1H-indole-2-carbonyl]-N-[1-(methoxymethyl)cyclopropyl]-N-methyl-1H,4H,5H,6H,7H-pyrazolo[4,3-c]pyridine-3-carboxamide]
EC50 (HBV): < 1 µM
IC50 (HBV core protein): < 5 µM
CC50 at 6 days [1]: > 10 µM

COCC1(N(C)C(=O)c2n[nH]c3c2CN(C(=O)c2cc4c(C(F)F)cccc4[nH]2)CC3)CC1 [Example 299, 5-[4-(difluoromethyl)-1H-indole-2-carbonyl]-N-[1-(methoxymethyl)cyclopropyl]-N-methyl-1H,4H,5H,6H,7H-pyrazolo[4,3-c]pyridine-3-carboxamide]
EC50 (HBV): < 1 µM
IC50 (HBV core protein): < 5 µM
CC50 at 6 days [1]: > 10 µM

COCC1(N(C)C(=O)c2n[nH]c3c2CN(C(=O)c2cc4cc(F)c(F)cc4[nH]2)CC3)CC1 [Example 300, 5-(5,6-difluoro-1H-indole-2-carbonyl)-N-[1-(methoxymethyl)cyclopropyl]-N-methyl-1H,4H,5H,6H,7H-pyrazolo[4,3-c]pyridine-3-carboxamide]
EC50 (HBV): < 1 µM
IC50 (HBV core protein): < 5 µM
CC50 at 6 days [1]: > 10 µM

COCC1(N(C)C(=O)c2n[nH]c3c2CN(C(=O)c2cc4c(C(F)(F)F)cccc4[nH]2)CC3)CC1 [Example 302, N-[1-(methoxymethyl)cyclopropyl]-N-methyl-5-[4-(trifluoromethyl)-1H-indole-2-carbonyl]-1H,4H,5H,6H,7H-pyrazolo[4,3-c]pyridine-3-carboxamide]
EC50 (HBV): < 1 µM
IC50 (HBV core protein): < 5 µM
CC50 at 6 days [1]: > 10 µM

COCC1(N(CC(F)F)C(=O)c2n[nH]c3c2CN(C(=O)c2cc4ccccc4[nH]2)CC3)CC1 [Example 303, N-(2,2-difluoroethyl)-5-(1H-indole-2-carbonyl)-N-[1-(methoxymethyl)cyclopropyl]-1H,4H,5H,6H,7H-pyrazolo[4,3-c]pyridine-3-carboxamide]
EC50 (HBV): < 1 µM
IC50 (HBV core protein): < 5 µM
CC50 at 6 days [1]: > 10 µM

COCC1(N(C(=O)c2n[nH]c3c2CN(C(=O)c2cc4ccccc4[nH]2)CC3)C(C)C)CC1 [Example 304, 5-(1H-indole-2-carbonyl)-N-[1-(methoxymethyl)cyclopropyl]-N-(propan-2-yl)-1H,4H,5H,6H,7H-pyrazolo[4,3-c]pyridine-3-carboxamide]
EC50 (HBV): < 1 µM
IC50 (HBV core protein): < 5 µM
CC50 at 6 days [1]: > 10 µM

COCC1(N(C)C(=O)c2n[nH]c3c2CN(C(=O)c2cc4c(F)cc(Cl)cc4[nH]2)CC3)CC1 [Example 305, 5-(6-chloro-4-fluoro-1H-indole-2-carbonyl)-N-[1-(methoxymethyl)cyclopropyl]-N-methyl-1H,4H,5H,6H,7H-pyrazolo[4,3-c]pyridine-3-carboxamide]
EC50 (HBV): < 1 µM
IC50 (HBV core protein): < 5 µM
CC50 at 6 days [1]: > 10 µM

COCC1(N(C)C(=O)c2n[nH]c3c2CN(C(=O)c2cc4c(Cl)ccc(F)c4[nH]2)CC3)CC1 [Example 306, 5-(4-chloro-7-fluoro-1H-indole-2-carbonyl)-N-[1-(methoxymethyl)cyclopropyl]-N-methyl-1H,4H,5H,6H,7H-pyrazolo[4,3-c]pyridine-3-carboxamide]
EC50 (HBV): < 1 µM
IC50 (HBV core protein): < 5 µM
CC50 at 6 days [1]: > 10 µM

COCC1(N(C)C(=O)c2n[nH]c3c2CN(C(=O)c2cc4c(F)c(F)cc(F)c4[nH]2)CC3)CC1 [Example 307, N-[1-(methoxymethyl)cyclopropyl]-N-methyl-5-(4,5,7-trifluoro-1H-indole-2-carbonyl)-1H,4H,5H,6H,7H-pyrazolo[4,3-c]pyridine-3-carboxamide]
EC50 (HBV): < 1 µM
IC50 (HBV core protein): < 5 µM
CC50 at 6 days [1]: > 10 µM
